Consider three molecules from BindingDB's records for patent US20240158408 (280 Bio, 2024).

Test [1] deals with Phosphatidylinositol 4,5-bisphosphate 3-kinase catalytic subunit alpha isoform (Homo sapiens, UniProt P42336). In words: ADP-Glo Kinase Assay. (In general: In ADP-Glo the light output rises with the ADP produced.)
Test [2] concerns the target Phosphatidylinositol 4,5-bisphosphate 3-kinase catalytic subunit alpha isoform [H1047R] (Homo sapiens, UniProt P42336, H1047R).

Phosphatidylinositol 4,5-bisphosphate 3-kinase catalytic subunit alpha isoform, sequence (P42336 whole entry, canonical isoform): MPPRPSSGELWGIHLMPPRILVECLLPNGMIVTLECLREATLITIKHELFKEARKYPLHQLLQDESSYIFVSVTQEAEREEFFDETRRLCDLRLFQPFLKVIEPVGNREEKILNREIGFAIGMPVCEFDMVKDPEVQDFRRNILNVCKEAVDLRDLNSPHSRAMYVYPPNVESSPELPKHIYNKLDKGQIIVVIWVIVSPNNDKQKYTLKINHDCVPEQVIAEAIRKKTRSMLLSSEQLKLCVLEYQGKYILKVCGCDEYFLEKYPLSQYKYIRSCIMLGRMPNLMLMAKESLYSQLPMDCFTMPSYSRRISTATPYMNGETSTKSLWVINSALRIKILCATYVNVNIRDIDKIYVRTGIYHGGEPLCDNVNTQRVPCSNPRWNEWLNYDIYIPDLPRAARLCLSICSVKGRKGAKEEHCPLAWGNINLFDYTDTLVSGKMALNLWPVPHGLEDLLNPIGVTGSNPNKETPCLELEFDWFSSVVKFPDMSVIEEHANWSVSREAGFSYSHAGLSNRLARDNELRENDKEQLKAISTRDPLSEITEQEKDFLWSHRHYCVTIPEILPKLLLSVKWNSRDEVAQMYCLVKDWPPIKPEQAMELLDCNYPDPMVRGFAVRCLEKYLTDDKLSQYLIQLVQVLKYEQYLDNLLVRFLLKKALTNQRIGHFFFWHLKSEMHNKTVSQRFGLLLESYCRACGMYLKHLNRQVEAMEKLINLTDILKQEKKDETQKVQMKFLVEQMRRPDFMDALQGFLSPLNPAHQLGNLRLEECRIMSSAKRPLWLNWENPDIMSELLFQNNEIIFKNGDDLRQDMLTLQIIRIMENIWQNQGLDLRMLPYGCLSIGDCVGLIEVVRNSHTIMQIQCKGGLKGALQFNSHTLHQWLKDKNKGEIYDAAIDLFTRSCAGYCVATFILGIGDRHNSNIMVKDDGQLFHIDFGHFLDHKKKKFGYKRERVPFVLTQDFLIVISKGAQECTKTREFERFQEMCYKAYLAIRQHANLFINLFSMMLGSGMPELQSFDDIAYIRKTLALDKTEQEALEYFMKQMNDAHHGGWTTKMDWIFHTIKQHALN
Phosphatidylinositol 4,5-bisphosphate 3-kinase catalytic subunit alpha isoform [H1047R], sequence (P42336 whole entry H1047R, canonical isoform): as the sequence (P42336 whole entry, canonical isoform) above, with H1047R counted along it

As a reminder, the IC50 is the concentration needed to halve the response being measured. In the case of `Cn1nc2ccc(NC(=O)c3cc(F)cc(C(F)(F)F)c3)c3c2c1C(=O)NC3c1cc(Cl)ccc1Cl` (stereo unspecified) [US20240158408, Compound YL104], the values for the IC50 in test [1] and in test [2] were greater than 10 µM and less than 0.25 µM, respectively.
The corresponding values for `Cn1nc2c(-c3ccc4ncnn4c3C#N)cc(NC(=O)c3cc(F)cc(C(F)(F)F)c3)c3c2c1C(=O)NC3c1cc(F)ccc1Cl` (stereo unspecified) [US20240158408, Compound YL106] are greater than 10 µM and less than 0.25 µM.
In the same order, the values of `Cn1nc2c(-c3ccc4ncnn4c3C#N)cc(NC(=O)c3cc(F)cc(C(F)(F)F)c3)c3c2c1C(=O)NC3c1cc(Cl)ccc1Cl` (stereo unspecified) [US20240158408, Compound YL107] are greater than 10 µM and less than 0.25 µM.
